Measured values as given in US9187429B2, “Phenyl-tetrahydroisoquinoline derivatives” (Hoffmann-La Roche Inc., priority 2012, dated 2015).

Columns and labels:
[1] = target: CYP11B2 (Homo sapiens (Human), UniProt P19099); assay: G-402 cellular enzyme assay, human CYP11B2 (aldosterone release); assay type: cell-based; conditions: G-402 cells expressing human CYP11B2, 1 μM Deoxycorticosterone
Source text: (§1) The expression plasmids contains the ORF for either human/cyno CYP11B1 or CYP11B2 under the control of a suitable promoter (CMV-promoter) and a suitable resistance marker (neomycin). Using standard techniques the expression plasmid is transfected into G-402 cells and these cells are then selected for expressing the given resistance markers. Individual cell-clones are then selected and assessed for displaying the desired enzymatic activity using 11-Deoxycorticosterone (Cyp 11B2) or 11-Deoxycortisol (Cyp 11B1) as a substrate.
(§2) G-402 cells expressing CYP11 constructs were established as described above and maintained in McCoy's 5a Medium Modified, ATCC Catalog No. 30-2007 containing 10% FCS and 400 μg/ml G418 (Geneticin) at 37° C. under an atmosphere of 5% CO2/95% air. […] For assaying enzymatic activity, cells were plated onto 96 well plates and incubated for 16 h. An aliquot of the supernatant is then transferred and analyzed for the concentration of the expected product (Aldosterone for CYP11B2; Cortisol for CYP11B1). The concentrations of these steroids can be determined using HTRF assays from CisBio analyzing either Aldosterone or Cortisol.
(§3) Inhibition of the release of produced steroids can be used as a measure of the respective enzyme inhibition by test compounds added during the cellular enzyme assay. The dose dependent inhibition of enzymatic activity by a compound is calculated by means of plotting added inhibitor concentrations (x-axes) vs. measured steroid/product level (y-axes). The inhibition is then calculated by fitting the following 4-parameter sigmoidal function (Morgan-Mercer-Flodin (MMF) model) to the raw data points using the least squares method:
(§4) [formula] wherein, A is the maximum y value, B is the EC50 factor determined using XLFit, C is the minimum y value and D is the slope value.
(§5) EC50 values for compounds claimed herein were tested with the G402-based assay system described. Cyp 11B2 enzyme activity was tested in presence of 1 μM Deoxycorticosterone and variable amounts of inhibitors; Cyp 11B1 enzyme activity was tested in presence of 1 μM Deoxycortisol and variable amounts of inhibitors.

[2] = target: human CYP11B1 (Homo sapiens (Human), UniProt P15538); assay: G-402 cellular enzyme assay, human CYP11B1 (cortisol release); assay type: cell-based; conditions: G-402 cells expressing human CYP11B1, 1 μM Deoxycortisol
Source text: as §1, §2, §3, §4, §5

CYP11B2, sequence (P19099 25-503): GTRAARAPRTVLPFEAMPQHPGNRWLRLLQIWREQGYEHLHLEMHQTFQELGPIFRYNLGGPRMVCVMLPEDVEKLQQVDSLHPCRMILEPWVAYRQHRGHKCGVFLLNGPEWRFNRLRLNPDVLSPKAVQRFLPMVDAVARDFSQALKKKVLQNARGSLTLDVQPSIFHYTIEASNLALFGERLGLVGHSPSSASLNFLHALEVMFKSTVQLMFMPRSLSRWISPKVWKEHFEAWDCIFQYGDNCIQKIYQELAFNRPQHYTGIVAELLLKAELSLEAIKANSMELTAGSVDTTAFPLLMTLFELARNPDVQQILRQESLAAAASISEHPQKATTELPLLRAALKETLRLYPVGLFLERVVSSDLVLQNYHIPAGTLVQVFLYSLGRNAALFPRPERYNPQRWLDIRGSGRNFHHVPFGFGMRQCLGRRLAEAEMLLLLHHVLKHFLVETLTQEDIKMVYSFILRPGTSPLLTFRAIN
human CYP11B1, sequence (P15538 25-503): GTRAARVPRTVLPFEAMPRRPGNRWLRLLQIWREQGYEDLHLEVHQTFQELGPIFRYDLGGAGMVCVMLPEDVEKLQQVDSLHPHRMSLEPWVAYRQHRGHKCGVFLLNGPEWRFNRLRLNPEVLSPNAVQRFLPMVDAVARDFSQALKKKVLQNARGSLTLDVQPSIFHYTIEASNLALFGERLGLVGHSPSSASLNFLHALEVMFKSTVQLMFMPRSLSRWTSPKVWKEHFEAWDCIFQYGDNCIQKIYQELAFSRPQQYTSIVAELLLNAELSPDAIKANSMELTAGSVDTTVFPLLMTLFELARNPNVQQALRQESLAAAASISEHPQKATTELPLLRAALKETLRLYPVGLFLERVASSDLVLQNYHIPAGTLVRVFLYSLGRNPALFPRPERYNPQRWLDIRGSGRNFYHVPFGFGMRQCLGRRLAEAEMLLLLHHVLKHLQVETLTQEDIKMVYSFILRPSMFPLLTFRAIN

| EC50 [1] [nM] | EC50 [2] [nM] | Structure (SMILES) |
| --- | --- | --- |
| 42 | 173 | N#Cc1ccc(-c2cncc3c2CCCC3N)cc1 (racemic) [Example 1, (rac)-4-(8-Amino-5,6,7,8-tetrahydroisoquinolin-4-yl)benzonitrile] |
| 207 | 1090 | CCS(=O)(=O)NC1CCCc2c(-c3ccc(C#N)cc3)cncc21 (racemic) [Example 2, (rac)-N-(4-(4-Cyanophenyl)-5,6,7,8-tetrahydroisoquinolin-8-yl)ethanesulfonamide] |
| 52 | 291 | CCCNS(=O)(=O)NC1CCCc2c(-c3ccc(C#N)cc3)cncc21 (racemic) [Example 3, (rac)-N-[4-(4-Cyanophenyl)-5,6,7,8-tetrahydroisoquinolin-8-yl]-N′-propylsulfuric diamide] |
| 220 | 2170 | CCNC(=O)NC1CCCc2c(-c3ccc(C#N)cc3)cncc21 (racemic) [Example 4, (rac)-1-(4-(4-Cyanophenyl)-5,6,7,8-tetrahydroisoquinolin-8-yl)-3-ethylurea] |
|  | 760 | CCC(=O)NC1CCCc2c(-c3ccc(C#N)cc3)cncc21 (racemic) [Example 5, (rac)-N-(4-(4-Cyanophenyl)-5,6,7,8-tetrahydroisoquinolin-8-yl)propionamide] |
| 43 | 422 | CC(=O)NC1CCCc2c(-c3ccc(C#N)cc3)cncc21 (racemic) [Example 8, (rac)-N-(4-(4-Cyanophenyl)-5,6,7,8-tetrahydroisoquinolin-8-yl)acetamide] |
| 67 | 658 | CCOC(=O)NC1CCCc2c(-c3ccc(C#N)cc3)cncc21 (racemic) [Example 10, (rac)-Ethyl 4-(4-cyanophenyl)-5,6,7,8-tetrahydroisoquinolin-8-ylcarbamate] |
| 8 | 31 | N#Cc1ccc(-c2cncc3c2CCCC3O)cc1 (racemic) [Example 11, (rac)-4-(8-Hydroxy-5,6,7,8-tetrahydroisoquinolin-4-yl)benzonitrile] |
| 25 | 30 | CCNC(=O)OC1CCCc2c(-c3ccc(C#N)cc3)cncc21 (racemic) [Example 12, (rac)-4-(4-Cyanophenyl)-5,6,7,8-tetrahydroisoquinolin-8-yl ethylcarbamate] |
| 10 | 8 | COC1CCCc2c(-c3ccc(C#N)cc3)cncc21 (racemic) [Example 13, (rac)-4-(8-Methoxy-5,6,7,8-tetrahydroisoquinolin-4-yl)benzonitrile] |
| 16 | 73 | Cc1ccc(C2(O)CCCc3c(-c4ccc(C#N)cc4)cncc32)cc1C (racemic) [Example 14, (rac)-4-(8-(3,4-Dimethylphenyl)-8-hydroxy-5,6,7,8-tetrahydroisoquinolin-4-yl)benzonitrile] |
| 22 | 511 | CCC(=O)NC1CCc2c(-c3ccc(C#N)cc3)cncc21 (racemic) [Example 17, (rac)-N-(4-(4-Cyanophenyl)-6,7-dihydro-5H-cyclopenta[c]pyridin-7-yl)propionamide] |
| 24 | 480 | CCC(=O)NC1CCCc2c(-c3ccc(F)c(Cl)c3)cncc21 (racemic) [Example 20, (rac)-N-(4-(3-Chloro-4-fluorophenyl)-5,6,7,8-tetrahydroisoquinolin-8-yl)propionamide] |
| 82 | 7090 | CCC(=O)NC1CCCc2c(-c3ccc(C(F)(F)F)cc3)cncc21 (racemic) [Example 21, (rac)-N-(4-(4-(Trifluoromethyl)phenyl)-5,6,7,8-tetrahydroisoquinolin-8-yl)propionamide] |
| 31 | 1420 | CCC(=O)NC1CCCc2c(-c3ccc(Cl)cc3)cncc21 (racemic) [Example 24, (rac)-N-(4-(4-Chlorophenyl)-5,6,7,8-tetrahydroisoquinolin-8-yl)propionamide] |
| 14 | 625 | CCC(=O)NC1CCCc2c(-c3ccc(F)c(C)c3)cncc21 (racemic) [Example 27, (rac)-N-(4-(4-Fluoro-3-methylphenyl)-5,6,7,8-tetrahydroisoquinolin-8-yl)propionamide] |
| 28 | 1500 | CCC(=O)NC1CCCc2c(-c3ccc(Cl)cc3F)cncc21 (racemic) [Example 30, (rac)-N-(4-(4-Chloro-2-fluorophenyl)-5,6,7,8-tetrahydroisoquinolin-8-yl)propionamide] |
|  | 263 | CCC(=O)NC1CCCc2c(-c3ccc(C#N)cc3)cncc21 (single isomer, unassigned; (+)) [Example 7, (+)-(R or S)—N-(4-(4-Cyanophenyl)-5,6,7,8-tetrahydroisoquinolin-8-yl)propionamide] |
| 5750 |  | C[C@@H](O)C(=O)NC1CCCc2c(-c3ccc(C(F)(F)F)cc3)cncc21 (single isomer, unassigned; (+)) [Example 47, (+)-(R)-2-Hydroxy-N—[(R or S)-4-(4-trifluoromethyl-phenyl)-5,6,7,8-tetrahydro-isoquinolin-8-yl]-propionamide] |
|  | 11700 | CCC(=O)NC1CCCc2c(-c3ccc(C#N)cc3)cncc21 (single isomer, unassigned; (-)) [Example 6, (−)-(S or R)—N-(4-(4-Cyanophenyl)-5,6,7,8-tetrahydroisoquinolin-8-yl)propionamide] |
| 6380 |  | CCC(=O)NC1CCCc2c(-c3ccc(C(F)(F)F)cc3)cncc21 (single isomer, unassigned; (-)) [Example 22, (−)-(S or R)—N-(4-(4-(Trifluoromethyl)phenyl)-5,6,7,8-tetrahydroisoquinolin-8-yl)propionamide] |
| 1220 |  | CCC(=O)NC1CCCc2c(-c3ccc(Cl)cc3F)cncc21 (single isomer, unassigned; (-)) [Example 31, (−)-(S or R)—N-(4-(4-Chloro-2-fluorophenyl)-5,6,7,8-tetrahydroisoquinolin-8-yl)propionamide] |
| 5770 |  | CCC(=O)NC1CCc2c(-c3ccc(C(F)(F)F)cc3)cncc21 (single isomer, unassigned; (-)) [Example 50, (−)-(S or R)—N-(4-(4-(Trifluoromethyl)phenyl)-6,7-dihydro-5H-cyclopenta[c]pyridin-7-yl)propionamide] |
| 9100 |  | C[C@@H](O)C(=O)NC1CCc2c(-c3ccc(C(F)(F)F)cc3)cncc21 (single isomer, unassigned; (-)) [Example 53, (−)-(R)-2-Hydroxy-N—((S or R)-4-(4-(trifluoromethyl)phenyl)-6,7-dihydro-5H-cyclopenta[c]pyridin-7-yl)propanamide] |
| 1660 |  | CCC(=O)NC1CCc2c(-c3ccc(F)c(C)c3)cncc21 (single isomer, unassigned; (-)) [Example 59, (−)-(S or R)—N-(4-(4-Fluoro-3-methylphenyl)-6,7-dihydro-5H-cyclopenta[c]pyridin-7-yl)propionamide] |
| 16500 |  | CCS(=O)(=O)NC1CCc2c(-c3ccc(C(F)(F)F)c(F)c3)cncc21 (single isomer, unassigned; (-)) [Example 72, (−)-(S or R)—N-(4-(3-Fluoro-4-(trifluoromethyl)phenyl)-6,7-dihydro-5H-cyclopenta[c]pyridin-7-yl)ethanesulfonamide] |
